{"source": "PubChem BioAssay AID1963975", "about": "(Molecular Pharmacology Branch, DTP, NCI, 2024);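 also: spheroids exposed to agents for 7 days before viability read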;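 as to viability, T/C: 100% = DMSO vehicle treated spheroids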", "test_system": "624824-186-R-J2-PDC multicell spheroids, viability", "assay": "Anticancer human tumor 624824-186-R-J2-PDC patient-derived colon adenocarcinoma cell line growth inhibition [PI3K]", "details": "for viability, T/C: stronger effect = lower value", "method_in_brief": "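Tumor cells were combined with HUVEC and MSCs into spheroids, then dosed with PI3K-inhibitor combinations over half-log ranges capped near clinical Cmax or 10 microM.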", "key": {"[1]": {"details": "curve of first compound, second compound 0.0316 µM"}, "[2]": {"details": "curve of first compound, second compound 0.1 µM"}, "[3]": {"details": "curve of first compound, second compound 0.316 µM"}, "[4]": {"details": "curve of first compound, second compound 1 µM"}}, "data": [{"smiles": "Cn1cnc2c(F)c(Nc3ccc(Br)cc3Cl)c(C(=O)NOCCO)cc21", "note": "+ CC(Nc1ccc2c(c1)OCCn1cc(N3C(=O)OCC3C(F)F)nc1-2)C(N)=O", "values": [{"measurement": "IC50", "setting": "curve of first compound, second compound 0.00316 µM", "value": "> 3", "unit": "µM"}, {"measurement": "IC50", "setting": "curve of first compound, second compound 0.01 µM", "value": "> 3", "unit": "µM"}, {"measurement": "IC50", "setting": "[1]", "value": "> 3", "unit": "µM"}, {"measurement": "IC50", "setting": "[2]", "value": "> 3", "unit": "µM"}, {"measurement": "IC50", "setting": "[3]", "value": 2.93, "unit": "µM"}, {"measurement": "IC50", "setting": "[4]", "value": 0.669, "unit": "µM"}, {"measurement": "viability, T/C", "setting": "second compound 0.00316 µM, first compound 0.00949 µM", "value": 89.3, "unit": "%"}, {"measurement": "viability, T/C", "setting": "second compound 0.00316 µM, first compound 0.03 µM", "value": 76.8, "unit": "%"}, {"measurement": "viability, T/C", "setting": "second compound 0.00316 µM, first compound 0.0949 µM", "value": 76, "unit": "%"}, {"measurement": "viability, T/C", "setting": "second compound 0.00316 µM, first compound 0.3 µM", "value": 74.8, "unit": "%"}, {"measurement": "viability, T/C", "setting": "second compound 0.00316 µM, first compound 0.949 µM", "value": 87.8, "unit": "%"}, {"measurement": "viability, T/C", "setting": "second compound 0.00316 µM, first compound 3 µM", "value": 78.7, "unit": "%"}, {"measurement": "viability, T/C", "setting": "second compound 0.01 µM, first compound 0.00949 µM", "value": 87.2, "unit": "%"}, {"measurement": "viability, T/C", "setting": "second compound 0.01 µM, first compound 0.03 µM", "value": 71.2, "unit": "%"}, {"measurement": "viability, T/C", "setting": "second compound 0.01 µM, first compound 0.0949 µM", "value": 81.9, "unit": "%"}, {"measurement": "viability, T/C", "setting": "second compound 0.01 µM, first compound 0.3 µM", "value": 70.9, "unit": "%"}, {"measurement": "viability, T/C", "setting": "second compound 0.01 µM, first compound 0.949 µM", "value": 89.6, "unit": "%"}, {"measurement": "viability, T/C", "setting": "second compound 0.01 µM, first compound 3 µM", "value": 81.8, "unit": "%"}, {"measurement": "viability, T/C", "setting": "second compound 0.0316 µM, first compound 0.00949 µM", "value": 72.1, "unit": "%"}, {"measurement": "viability, T/C", "setting": "second compound 0.0316 µM, first compound 0.03 µM", "value": 66.2, "unit": "%"}, {"measurement": "viability, T/C", "setting": "second compound 0.0316 µM, first compound 0.0949 µM", "value": 75.7, "unit": "%"}, {"measurement": "viability, T/C", "setting": "second compound 0.0316 µM, first compound 0.3 µM", "value": 77.4, "unit": "%"}, {"measurement": "viability, T/C", "setting": "second compound 0.0316 µM, first compound 0.949 µM", "value": 85.8, "unit": "%"}, {"measurement": "viability, T/C", "setting": "second compound 0.0316 µM, first compound 3 µM", "value": 67.1, "unit": "%"}, {"measurement": "viability, T/C", "setting": "second compound 0.1 µM, first compound 0.00949 µM", "value": 83.3, "unit": "%"}, {"measurement": "viability, T/C", "setting": "second compound 0.1 µM, first compound 0.03 µM", "value": 68.2, "unit": "%"}, {"measurement": "viability, T/C", "setting": "second compound 0.1 µM, first compound 0.0949 µM", "value": 61.1, "unit": "%"}, {"measurement": "viability, T/C", "setting": "second compound 0.1 µM, first compound 0.3 µM", "value": 84.2, "unit": "%"}, {"measurement": "viability, T/C", "setting": "second compound 0.1 µM, first compound 0.949 µM", "value": 67.9, "unit": "%"}, {"measurement": "viability, T/C", "setting": "second compound 0.1 µM, first compound 3 µM", "value": 78.8, "unit": "%"}, {"measurement": "viability, T/C", "setting": "second compound 0.316 µM, first compound 0.00949 µM", "value": 102, "unit": "%"}, {"measurement": "viability, T/C", "setting": "second compound 0.316 µM, first compound 0.03 µM", "value": 68.1, "unit": "%"}, {"measurement": "viability, T/C", "setting": "second compound 0.316 µM, first compound 0.0949 µM", "value": 74, "unit": "%"}, {"measurement": "viability, T/C", "setting": "second compound 0.316 µM, first compound 0.3 µM", "value": 68.6, "unit": "%"}, {"measurement": "viability, T/C", "setting": "second compound 0.316 µM, first compound 0.949 µM", "value": 60.2, "unit": "%"}, {"measurement": "viability, T/C", "setting": "second compound 0.316 µM, first compound 3 µM", "value": 50.1, "unit": "%"}, {"measurement": "viability, T/C", "setting": "second compound 1 µM, first compound 0.00949 µM", "value": 68.2, "unit": "%"}, {"measurement": "viability, T/C", "setting": "second compound 1 µM, first compound 0.03 µM", "value": 68.8, "unit": "%"}, {"measurement": "viability, T/C", "setting": "second compound 1 µM, first compound 0.0949 µM", "value": 66.3, "unit": "%"}, {"measurement": "viability, T/C", "setting": "second compound 1 µM, first compound 0.3 µM", "value": 59.1, "unit": "%"}, {"measurement": "viability, T/C", "setting": "second compound 1 µM, first compound 0.949 µM", "value": 46, "unit": "%"}, {"measurement": "viability, T/C", "setting": "second compound 1 µM, first compound 3 µM", "value": 29.5, "unit": "%"}]}, {"smiles": "CC(C)n1nc(-c2ccc3oc(N)nc3c2)c2c(N)ncnc21", "values": [{"measurement": "viability, T/C", "setting": "compound 0.00316 µM", "value": "79.1% [middle of 4 runs]"}, {"measurement": "viability, T/C", "setting": "compound 0.01 µM", "value": "82.6% [middle of 4 runs]"}, {"measurement": "viability, T/C", "setting": "compound 0.0316 µM", "value": "76.4% [middle of 4 runs]"}, {"measurement": "viability, T/C", "setting": "compound 0.1 µM", "value": "79.5% [middle of 4 runs]"}, {"measurement": "IC50", "setting": "curve of compound", "value": "> 0.1", "unit": "µM"}]}, {"smiles": "C#Cc1c(F)ccc2cc(O)cc(-c3ncc4c(N5CC6CCC(C5)N6)nc(OCC56CCCN5CC(F)C6)nc4c3F)c12", "note": "(centres undefined) + CC(Nc1ncnc2nc[nH]c12)c1cc2cccc(Cl)c2c(=O)n1-c1ccccc1", "values": [{"measurement": "IC50", "setting": "[1]", "value": "> 10", "unit": "µM"}, {"measurement": "IC50", "setting": "[2]", "value": "> 10", "unit": "µM"}, {"measurement": "IC50", "setting": "[3]", "value": "> 10", "unit": "µM"}, {"measurement": "IC50", "setting": "[4]", "value": "> 10", "unit": "µM"}, {"measurement": "IC50", "setting": "curve of first compound, second compound 3.16 µM", "value": "> 10", "unit": "µM"}, {"measurement": "IC50", "setting": "curve of first compound, second compound 10 µM", "value": "> 10", "unit": "µM"}, {"measurement": "viability, T/C", "setting": "second compound 0.0316 µM, first compound 0.0316 µM", "value": 81.5, "unit": "%"}, {"measurement": "viability, T/C", "setting": "second compound 0.0316 µM, first compound 0.1 µM", "value": 80, "unit": "%"}, {"measurement": "viability, T/C", "setting": "second compound 0.0316 µM, first compound 0.316 µM", "value": 106, "unit": "%"}, {"measurement": "viability, T/C", "setting": "second compound 0.0316 µM, first compound 1 µM", "value": 73.1, "unit": "%"}, {"measurement": "viability, T/C", "setting": "second compound 0.0316 µM, first compound 3.16 µM", "value": 93.2, "unit": "%"}, {"measurement": "viability, T/C", "setting": "second compound 0.0316 µM, first compound 10 µM", "value": 59.5, "unit": "%"}, {"measurement": "viability, T/C", "setting": "second compound 0.1 µM, first compound 0.0316 µM", "value": 83.8, "unit": "%"}, {"measurement": "viability, T/C", "setting": "second compound 0.1 µM, first compound 0.1 µM", "value": 78.7, "unit": "%"}, {"measurement": "viability, T/C", "setting": "second compound 0.1 µM, first compound 0.316 µM", "value": 76, "unit": "%"}, {"measurement": "viability, T/C", "setting": "second compound 0.1 µM, first compound 1 µM", "value": 74.1, "unit": "%"}, {"measurement": "viability, T/C", "setting": "second compound 0.1 µM, first compound 3.16 µM", "value": 77.9, "unit": "%"}, {"measurement": "viability, T/C", "setting": "second compound 0.1 µM, first compound 10 µM", "value": 67.7, "unit": "%"}, {"measurement": "viability, T/C", "setting": "second compound 0.316 µM, first compound 0.0316 µM", "value": 78.9, "unit": "%"}, {"measurement": "viability, T/C", "setting": "second compound 0.316 µM, first compound 0.1 µM", "value": 93.6, "unit": "%"}, {"measurement": "viability, T/C", "setting": "second compound 0.316 µM, first compound 0.316 µM", "value": 93.8, "unit": "%"}, {"measurement": "viability, T/C", "setting": "second compound 0.316 µM, first compound 1 µM", "value": 82.5, "unit": "%"}, {"measurement": "viability, T/C", "setting": "second compound 0.316 µM, first compound 3.16 µM", "value": 64.5, "unit": "%"}, {"measurement": "viability, T/C", "setting": "second compound 0.316 µM, first compound 10 µM", "value": 71.9, "unit": "%"}, {"measurement": "viability, T/C", "setting": "second compound 1 µM, first compound 0.0316 µM", "value": 73, "unit": "%"}, {"measurement": "viability, T/C", "setting": "second compound 1 µM, first compound 0.1 µM", "value": 72.8, "unit": "%"}, {"measurement": "viability, T/C", "setting": "second compound 1 µM, first compound 0.316 µM", "value": 81, "unit": "%"}, {"measurement": "viability, T/C", "setting": "second compound 1 µM, first compound 1 µM", "value": 76.6, "unit": "%"}, {"measurement": "viability, T/C", "setting": "second compound 1 µM, first compound 3.16 µM", "value": 86.3, "unit": "%"}, {"measurement": "viability, T/C", "setting": "second compound 1 µM, first compound 10 µM", "value": 75.5, "unit": "%"}, {"measurement": "viability, T/C", "setting": "second compound 3.16 µM, first compound 0.0316 µM", "value": 78.8, "unit": "%"}, {"measurement": "viability, T/C", "setting": "second compound 3.16 µM, first compound 0.1 µM", "value": 97.9, "unit": "%"}, {"measurement": "viability, T/C", "setting": "second compound 3.16 µM, first compound 0.316 µM", "value": 74.7, "unit": "%"}, {"measurement": "viability, T/C", "setting": "second compound 3.16 µM, first compound 1 µM", "value": 84.3, "unit": "%"}, {"measurement": "viability, T/C", "setting": "second compound 3.16 µM, first compound 3.16 µM", "value": 94.6, "unit": "%"}, {"measurement": "viability, T/C", "setting": "second compound 3.16 µM, first compound 10 µM", "value": 70.2, "unit": "%"}, {"measurement": "viability, T/C", "setting": "second compound 10 µM, first compound 0.0316 µM", "value": 87.4, "unit": "%"}, {"measurement": "viability, T/C", "setting": "second compound 10 µM, first compound 0.1 µM", "value": 83.2, "unit": "%"}, {"measurement": "viability, T/C", "setting": "second compound 10 µM, first compound 0.316 µM", "value": 91.4, "unit": "%"}, {"measurement": "viability, T/C", "setting": "second compound 10 µM, first compound 1 µM", "value": 102, "unit": "%"}, {"measurement": "viability, T/C", "setting": "second compound 10 µM, first compound 3.16 µM", "value": 98, "unit": "%"}, {"measurement": "viability, T/C", "setting": "second compound 10 µM, first compound 10 µM", "value": 89.4, "unit": "%"}]}]}
